{
  "source": "patent US7041851B2",
  "about": "“Fluorinated phenyl thiophenyl derivatives and their use for imaging serotonin transporters” (The Trustees of the University of Pennsylvania, priority 2002, dated 2006)",
  "test": "Organ distribution and brain regional uptake of [18F]ACF in rats",
  "note": "Values joined by “and” are separate entries in the source; they are usually repeats but may differ in a detail not shown here. Equal values may be shown once.",
  "data": [
    {"smiles": "CN(C)Cc1ccccc1Sc1cc([18F])c(Cl)cc1N", "note": "[[^18F]ACF]", "values": [
      {"measurement": "Organ distribution: Brain", "setting": "30 min after iv injection", "value": "1.28 ± 0.14", "unit": "% dose/organ"},
      {"measurement": "Organ distribution: Heart", "setting": "30 min after iv injection", "value": "0.18 ± 0.02", "unit": "% dose/organ"},
      {"measurement": "Organ distribution: Kidney", "setting": "30 min after iv injection", "value": "2.64 ± 0.79", "unit": "% dose/organ"},
      {"measurement": "Organ distribution: Liver", "setting": "30 min after iv injection", "value": "15.20 ± 1.20", "unit": "% dose/organ"},
      {"measurement": "Organ distribution: Lung", "setting": "30 min after iv injection", "value": "1.76 ± 0.20", "unit": "% dose/organ"},
      {"measurement": "Organ distribution: Muscle", "setting": "30 min after iv injection", "value": "10.70 ± 1.68", "unit": "% dose/organ"},
      {"measurement": "Organ distribution: Skin", "setting": "30 min after iv injection", "value": "6.51 ± 0.66", "unit": "% dose/organ"},
      {"measurement": "Organ distribution: Spleen", "setting": "30 min after iv injection", "value": "0.29 ± 0.09", "unit": "% dose/organ"},
      {"measurement": "Ratio to Cerebellum: Cerebellum", "setting": "30 min after iv injection", "value": "1.00 ± 0.00"},
      {"measurement": "Ratio to Cerebellum: Cortex", "setting": "30 min after iv injection", "value": "1.69 ± 0.20"},
      {"measurement": "Ratio to Cerebellum: Hippocampus", "setting": "30 min after iv injection", "value": "1.89 ± 0.24"},
      {"measurement": "Ratio to Cerebellum: Hypothalamus", "setting": "30 min after iv injection", "value": "2.29 ± 0.06"},
      {"measurement": "Ratio to Cerebellum: Remainder", "setting": "30 min after iv injection", "value": "1.80 ± 0.11"},
      {"measurement": "Ratio to Cerebellum: Striatum", "setting": "30 min after iv injection", "value": "2.06 ± 0.19"},
      {"measurement": "Regional brain distribution: Cerebellum", "setting": "30 min after iv injection", "value": "0.37 ± 0.07", "unit": "% dose/g"},
      {"measurement": "Regional brain distribution: Cortex", "setting": "30 min after iv injection", "value": "0.62 ± 0.07", "unit": "% dose/g"},
      {"measurement": "Regional brain distribution: Hippocampus", "setting": "30 min after iv injection", "value": "0.70 ± 0.06", "unit": "% dose/g"},
      {"measurement": "Regional brain distribution: Hypothalamus", "setting": "30 min after iv injection", "value": "0.85 ± 0.14", "unit": "% dose/g"},
      {"measurement": "Regional brain distribution: Remainder", "setting": "30 min after iv injection", "value": "0.67 ± 0.09", "unit": "% dose/g"},
      {"measurement": "Regional brain distribution: Striatum", "setting": "30 min after iv injection", "value": "0.76 ± 0.08", "unit": "% dose/g"},
      {"measurement": "Organ distribution: Blood", "setting": "60 min after iv injection", "value": "4.65 ± 0.46", "unit": "% dose/organ"},
      {"measurement": "Organ distribution: Bone", "setting": "60 min after iv injection", "value": "0.08 ± 0.02", "unit": "% dose/organ"},
      {"measurement": "Organ distribution: Brain", "setting": "60 min after iv injection", "value": "0.69 ± 0.09", "unit": "% dose/organ"},
      {"measurement": "Organ distribution: Heart", "setting": "60 min after iv injection", "value": "0.11 ± 0.01", "unit": "% dose/organ"},
      {"measurement": "Organ distribution: Kidney", "setting": "60 min after iv injection", "value": "1.38 ± 0.25", "unit": "% dose/organ"},
      {"measurement": "Organ distribution: Liver", "setting": "60 min after iv injection", "value": "10.30 ± 2.50", "unit": "% dose/organ"},
      {"measurement": "Organ distribution: Lung", "setting": "60 min after iv injection", "value": "0.73 ± 0.08", "unit": "% dose/organ"},
      {"measurement": "Organ distribution: Muscle", "setting": "60 min after iv injection", "value": "7.69 ± 0.29", "unit": "% dose/organ"},
      {"measurement": "Organ distribution: Skin", "setting": "60 min after iv injection", "value": "5.97 ± 1.64", "unit": "% dose/organ"},
      {"measurement": "Organ distribution: Spleen", "setting": "60 min after iv injection", "value": "0.13 ± 0.02", "unit": "% dose/organ"},
      {"measurement": "Ratio to Cerebellum: Cerebellum", "setting": "60 min after iv injection", "value": "1.00 ± 0.00"},
      {"measurement": "Ratio to Cerebellum: Cortex", "setting": "60 min after iv injection", "value": "2.10 ± 0.47"},
      {"measurement": "Ratio to Cerebellum: Hippocampus", "setting": "60 min after iv injection", "value": "2.91 ± 0.64"},
      {"measurement": "Ratio to Cerebellum: Hypothalamus", "setting": "60 min after iv injection", "value": "3.53 and 3.53 ± 0.33"},
      {"measurement": "Ratio to Cerebellum: Remainder", "setting": "60 min after iv injection", "value": "2.56 ± 0.44"},
      {"measurement": "Ratio to Cerebellum: Striatum", "setting": "60 min after iv injection", "value": "2.88 ± 0.52"},
      {"measurement": "Regional brain distribution: Cerebellum", "setting": "60 min after iv injection", "value": "0.15 ± 0.03", "unit": "% dose/g"},
      {"measurement": "Regional brain distribution: Cortex", "setting": "60 min after iv injection", "value": "0.33 ± 0.13", "unit": "% dose/g"},
      {"measurement": "Regional brain distribution: Hippocampus", "setting": "60 min after iv injection", "value": "0.45 ± 0.13", "unit": "% dose/g"},
      {"measurement": "Regional brain distribution: Hypothalamus", "setting": "60 min after iv injection", "value": "0.54 ± 0.13", "unit": "% dose/g"},
      {"measurement": "Regional brain distribution: Remainder", "setting": "60 min after iv injection", "value": "0.39 ± 0.03", "unit": "% dose/g"},
      {"measurement": "Regional brain distribution: Striatum", "setting": "60 min after iv injection", "value": "0.45 ± 0.14", "unit": "% dose/g"},
      {"measurement": "Organ distribution: Blood", "setting": "120 min after iv injection", "value": "3.20 ± 0.57", "unit": "% dose/organ"},
      {"measurement": "Organ distribution: Bone", "setting": "120 min after iv injection", "value": "0.28 ± 0.06", "unit": "% dose/organ"},
      {"measurement": "Organ distribution: Brain", "setting": "120 min after iv injection", "value": "0.21 ± 0.03", "unit": "% dose/organ"},
      {"measurement": "Organ distribution: Heart", "setting": "120 min after iv injection", "value": "0.06 ± 0.01", "unit": "% dose/organ"},
      {"measurement": "Organ distribution: Kidney", "setting": "120 min after iv injection", "value": "0.78 ± 0.15", "unit": "% dose/organ"},
      {"measurement": "Organ distribution: Liver", "setting": "120 min after iv injection", "value": "5.90 ± 1.03", "unit": "% dose/organ"},
      {"measurement": "Organ distribution: Lung", "setting": "120 min after iv injection", "value": "0.32 ± 0.06", "unit": "% dose/organ"},
      {"measurement": "Organ distribution: Muscle", "setting": "120 min after iv injection", "value": "4.02 ± 1.22", "unit": "% dose/organ"},
      {"measurement": "Organ distribution: Skin", "setting": "120 min after iv injection", "value": "2.61 ± 0.17", "unit": "% dose/organ"},
      {"measurement": "Organ distribution: Spleen", "setting": "120 min after iv injection", "value": "0.06 ± 0.02", "unit": "% dose/organ"},
      {"measurement": "Ratio to Cerebellum: Cerebellum", "setting": "120 min after iv injection", "value": "1.00 ± 0.00"},
      {"measurement": "Ratio to Cerebellum: Cortex", "setting": "120 min after iv injection", "value": "1.77 ± 0.04"},
      {"measurement": "Ratio to Cerebellum: Hippocampus", "setting": "120 min after iv injection", "value": "2.67 ± 0.15"},
      {"measurement": "Ratio to Cerebellum: Hypothalamus", "setting": "120 min after iv injection", "value": "3.23 ± 0.21"},
      {"measurement": "Ratio to Cerebellum: Remainder", "setting": "120 min after iv injection", "value": "2.34 ± 0.09"},
      {"measurement": "Ratio to Cerebellum: Striatum", "setting": "120 min after iv injection", "value": "2.97 ± 0.16"},
      {"measurement": "Regional brain distribution: Cerebellum", "setting": "120 min after iv injection", "value": "0.05 ± 0.01", "unit": "% dose/g"},
      {"measurement": "Regional brain distribution: Cortex", "setting": "120 min after iv injection", "value": "0.09 ± 0.01", "unit": "% dose/g"},
      {"measurement": "Regional brain distribution: Hippocampus", "setting": "120 min after iv injection", "value": "0.14 ± 0.02", "unit": "% dose/g"},
      {"measurement": "Regional brain distribution: Hypothalamus", "setting": "120 min after iv injection", "value": "0.17 ± 0.01", "unit": "% dose/g"},
      {"measurement": "Regional brain distribution: Remainder", "setting": "120 min after iv injection", "value": "0.12 ± 0.01", "unit": "% dose/g"},
      {"measurement": "Regional brain distribution: Striatum", "setting": "120 min after iv injection", "value": "0.15 ± 0.02", "unit": "% dose/g"},
      {"measurement": "Organ distribution: Blood", "setting": "240 min after iv injection", "value": "2.33 ± 0.34", "unit": "% dose/organ"},
      {"measurement": "Organ distribution: Bone", "setting": "240 min after iv injection", "value": "0.27 ± 0.07", "unit": "% dose/organ"},
      {"measurement": "Organ distribution: Brain", "setting": "240 min after iv injection", "value": "0.06 ± 0.01", "unit": "% dose/organ"},
      {"measurement": "Organ distribution: Heart", "setting": "240 min after iv injection", "value": "0.04 ± 0.01", "unit": "% dose/organ"},
      {"measurement": "Organ distribution: Kidney", "setting": "240 min after iv injection", "value": "0.51 ± 0.07", "unit": "% dose/organ"},
      {"measurement": "Organ distribution: Liver", "setting": "240 min after iv injection", "value": "3.55 ± 0.35", "unit": "% dose/organ"},
      {"measurement": "Organ distribution: Lung", "setting": "240 min after iv injection", "value": "0.15 ± 0.02", "unit": "% dose/organ"},
      {"measurement": "Organ distribution: Muscle", "setting": "240 min after iv injection", "value": "2.08 ± 0.05", "unit": "% dose/organ"},
      {"measurement": "Organ distribution: Skin", "setting": "240 min after iv injection", "value": "1.53 ± 0.17", "unit": "% dose/organ"},
      {"measurement": "Organ distribution: Spleen", "setting": "240 min after iv injection", "value": "0.03 ± 0.00", "unit": "% dose/organ"},
      {"measurement": "Ratio to Cerebellum: Cerebellum", "setting": "240 min after iv injection", "value": "1.00 ± 0.00"},
      {"measurement": "Ratio to Cerebellum: Cortex", "setting": "240 min after iv injection", "value": "1.52 ± 0.21"},
      {"measurement": "Ratio to Cerebellum: Hippocampus", "setting": "240 min after iv injection", "value": "1.99 ± 0.23"},
      {"measurement": "Ratio to Cerebellum: Hypothalamus", "setting": "240 min after iv injection", "value": "2.37 and 2.37 ± 0.23"},
      {"measurement": "Ratio to Cerebellum: Remainder", "setting": "240 min after iv injection", "value": "1.58 ± 0.13"},
      {"measurement": "Ratio to Cerebellum: Striatum", "setting": "240 min after iv injection", "value": "2.35 ± 0.05"},
      {"measurement": "Regional brain distribution: Cerebellum", "setting": "240 min after iv injection", "value": "0.02 ± 0.00", "unit": "% dose/g"},
      {"measurement": "Regional brain distribution: Cortex", "setting": "240 min after iv injection", "value": "0.03 ± 0.01", "unit": "% dose/g"},
      {"measurement": "Regional brain distribution: Hippocampus", "setting": "240 min after iv injection", "value": "0.04 ± 0.01", "unit": "% dose/g"},
      {"measurement": "Regional brain distribution: Hypothalamus", "setting": "240 min after iv injection", "value": "0.05 ± 0.00", "unit": "% dose/g"},
      {"measurement": "Regional brain distribution: Remainder", "setting": "240 min after iv injection", "value": "0.03 ± 0.00", "unit": "% dose/g"},
      {"measurement": "Regional brain distribution: Striatum", "setting": "240 min after iv injection", "value": "0.05 ± 0.00", "unit": "% dose/g"},
      {"measurement": "Time of peak specific uptake in the hypothalamus region", "setting": "after injection", "value": "60 to 120", "unit": "min"},
      {"measurement": "Initial brain uptake", "setting": "iv", "value": "1.71±0.45", "unit": "% dose/g"}
    ]}
  ]
}
